Patent US9067914B1, “Tropomyosin-related kinase (TRK) inhibitors” (Genzyme Corporation, priority 2013, dated 2015)
pIC50: −log10 of the molar value. Counter-ions that a name gives are not always drawn.

Columns and labels:
TrkB = TrkB (Homo sapiens (Human), UniProt Q16620); experiment: TrkB activity, off-chip mobility shift assay (LabChip 3000); format: biochemical; conditions: 70 μM ATP (ATP Km); n/d = none detected
TrkA = TrkA (Homo sapiens (Human), UniProt P04629); experiment: TrkA activity, off-chip mobility shift assay (LabChip 3000); format: biochemical; conditions: 55 μM ATP (ATP Km); n/d = none detected
Chain of TrkA (P04629 33-796): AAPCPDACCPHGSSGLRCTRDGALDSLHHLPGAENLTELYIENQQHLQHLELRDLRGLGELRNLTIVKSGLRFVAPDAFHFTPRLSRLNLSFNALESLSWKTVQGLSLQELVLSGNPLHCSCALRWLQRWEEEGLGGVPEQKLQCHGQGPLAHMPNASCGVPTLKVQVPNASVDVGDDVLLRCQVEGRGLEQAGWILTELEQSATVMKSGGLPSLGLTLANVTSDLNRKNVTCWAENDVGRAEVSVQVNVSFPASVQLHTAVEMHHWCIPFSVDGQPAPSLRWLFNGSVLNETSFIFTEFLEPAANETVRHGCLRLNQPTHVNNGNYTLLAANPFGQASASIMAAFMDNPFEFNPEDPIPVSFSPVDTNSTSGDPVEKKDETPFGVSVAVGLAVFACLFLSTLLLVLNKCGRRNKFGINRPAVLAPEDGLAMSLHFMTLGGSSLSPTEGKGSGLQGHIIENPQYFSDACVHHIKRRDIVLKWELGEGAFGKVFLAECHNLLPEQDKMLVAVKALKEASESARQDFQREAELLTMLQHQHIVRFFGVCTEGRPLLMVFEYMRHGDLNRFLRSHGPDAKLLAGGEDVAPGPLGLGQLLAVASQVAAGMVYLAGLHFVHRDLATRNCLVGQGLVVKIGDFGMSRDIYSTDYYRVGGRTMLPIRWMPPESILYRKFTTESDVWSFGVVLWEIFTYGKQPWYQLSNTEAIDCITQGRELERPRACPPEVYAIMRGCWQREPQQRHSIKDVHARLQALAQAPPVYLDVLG

[1] = system: PGPS knee arthritis in male Lewis rats; experiment: Reactivated peptidoglycan-polysaccharide (PGPS) knee arthritis; format: in vivo, rat; conditions: intra-articular on day -7 (Triamcinolone 0.06 mg; test compound 1 mg)
Text: Male Lewis rats were acclimated to the testing facility for 7 days. The rats were housed in 5 per cage in shoe-box polycarbonate cages with wire tops, wood chip bedding and suspended food and water bottles.
On day −21, the male Lewis rats were randomized into treatment groups by body weight. The rats were anesthetized and injected with peptidoglycan-polysaccharide (PGPS) into the right knee to induce PGPS arthritis. Arthritis was reactivated on days 0 and 14 by an IV tail injection of PGPS.
The rats were weighed at baseline on days 0, 4, 14 and 18. Knee thickness was measured by caliper at baseline and on days 0, 2, 4, 14, 16 and 18. Gait analysis occurred on days 0-4 and 14-18, with video recording of selected animals on days 3 and 17. Gait analysis was performed by applying ink to the ventral surface of the foot and documenting weight bearing during movement across paper.
The animals were terminated at day 18. Right knees were removed, trimmed of extraneous tissue, and collected into 10% neutral buffered formalin. After two days in the formalin buffer and three days in 10% formic acid decalcifier, the knees were cut into two approximately equal halves in the frontal plane and processed for paraffin embedding and stained with T.Blue. Histological examinations were subsequently performed for bone resorption, inflammation, pannus and cartilage damage.
Body weights, gait deficiency and caliper measurements were analyzed using a one-way analysis of variance (1-way ANOVA) with Dunnett's multiple comparison post-test. Gait scores were analyzed using a Kruskal-Wallis test (non-parametric ANOVA) with Dunn's multiple comparison post-test. Histopathology scores were analyzed using a Kruskal-Wallis test (non-parametric ANOVA) with Dunn's multiple comparison post-test.

Chain of TrkB (Q16620 32-822): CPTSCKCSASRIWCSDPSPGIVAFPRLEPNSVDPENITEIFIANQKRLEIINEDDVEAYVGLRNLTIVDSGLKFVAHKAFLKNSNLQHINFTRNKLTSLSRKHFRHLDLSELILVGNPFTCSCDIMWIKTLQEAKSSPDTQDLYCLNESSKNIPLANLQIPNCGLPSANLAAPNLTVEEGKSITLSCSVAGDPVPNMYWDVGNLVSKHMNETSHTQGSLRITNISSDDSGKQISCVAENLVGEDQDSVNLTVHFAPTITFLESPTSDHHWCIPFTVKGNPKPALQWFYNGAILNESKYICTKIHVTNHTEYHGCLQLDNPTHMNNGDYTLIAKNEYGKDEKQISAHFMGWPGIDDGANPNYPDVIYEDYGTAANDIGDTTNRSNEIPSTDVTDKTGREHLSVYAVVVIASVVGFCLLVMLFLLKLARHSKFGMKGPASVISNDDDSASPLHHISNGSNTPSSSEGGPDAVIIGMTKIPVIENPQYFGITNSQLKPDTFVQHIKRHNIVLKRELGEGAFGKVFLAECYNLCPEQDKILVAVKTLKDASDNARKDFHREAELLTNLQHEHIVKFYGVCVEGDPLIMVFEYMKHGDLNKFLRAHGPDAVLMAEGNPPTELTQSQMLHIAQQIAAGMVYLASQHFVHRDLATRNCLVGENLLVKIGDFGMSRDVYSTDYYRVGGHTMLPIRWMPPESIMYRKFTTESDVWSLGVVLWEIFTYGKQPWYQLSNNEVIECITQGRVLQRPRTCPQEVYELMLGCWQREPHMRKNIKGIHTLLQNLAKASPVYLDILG

| Compound | pIC50 (TrkB) | pIC50 (TrkA) | also measured |
| --- | --- | --- | --- |
| COc1cc(Cn2c(N)nc3cc(-c4cnn(C)c4)cnc32)ccc1OCc1ccc(SC(F)(F)F)cc1 [Ex. 3-40-2, 3-(3-methoxy-4-((4-((trifluoromethyl)thio)benzyl)oxy)benzyl)-6-(1-methyl-1H-pyrazol-4-yl)-3H-imidazo[4,5-b]pyridin-2-amine] | 9.22 | 9.70 |  |
| COc1cc(Cn2c(N)nc3cc(-c4cnn(C)c4)cnc32)ccc1OCc1ccc(C(C)C)nc1 [Ex. 3-40-3, 3-(4-((6-isopropylpyridin-3-yl)methoxy)-3-methoxybenzyl)-6-(1-methyl-1H-pyrazol-4-yl)-3H-imidazo[4,5-b]pyridin-2-amine] | 9.70 | 9.70 |  |
| COc1cc(Cn2c(N)nc3cc(-c4cnn(C)c4)cnc32)ccc1OCc1ccc(CC(F)(F)F)cc1 [Ex. 3-40-4, 3-(3-methoxy-4-((4-(2,2,2-trifluoroethyl)benzyl)oxy)benzyl)-6-(1-methyl-1H-pyrazol-4-yl)-3H-imidazo[4,5-b]pyridin-2-amine] | 9.52 | 9.70 |  |
| COc1ccc(COc2ccc(Cn3c(N)nc4cc(C#CC5CCCCC5)cnc43)cc2OC)cn1 [Ex. 3-41, 6-(cyclohexylethynyl)-3-(3-methoxy-4-((6-methoxypyridin-3-yl)methoxy)benzyl)-3H-imidazo[4,5-b]pyridin-2-amine] | 7.10 | 7.19 |  |
| COc1ccc(COc2ccc(Cn3c(N)nc4cc(C#CCCO)cnc43)cc2OC)cn1 [Ex. 3-42, 4-(2-amino-3-(3-methoxy-4-((6-methoxypyridin-3-yl)methoxy)benzyl)-3H-imidazo[4,5-b]pyridin-6-yl)but-3-yn-1-ol] | 8.52 | 8.15 |  |
| COc1ccc(C(Oc2ccc(Cn3c(N)nc4cc(-c5cnn(C)c5)cnc43)cc2OC)C2CC2)cn1 (stereo not drawn) [Ex. 3-43, 3-(4-(cyclopropyl(6-methoxypyridin-3-yl)methoxy)-3-methoxybenzyl)-6-(1-methyl-1H-pyrazol-4-yl)-3H-imidazo[4,5-b]pyridin-2-amine] | 7.29 | 7.24 |  |
| COc1cc2c(cn1)C(Oc1ccc(Cn3c(N)nc4cc(-c5cnn(C)c5)cnc43)cc1OC)CCC2 (stereo not drawn) [Ex. 3-44, 3-(3-methoxy-4-((3-methoxy-5,6,7,8-tetrahydroisoquinolin-8-yl)oxy)benzyl)-6-(1-methyl-1H-pyrazol-4-yl)-3H-imidazo[4,5-b]pyridin-2-amine] | 7.39 | 7.41 |  |
| COc1ccc(COc2ccc(C(C)n3c(N)nc4cc(-c5cnn(C)c5)ccc43)cc2OC)cn1 (stereo not drawn) [Ex. 3-45, 1-(1-(3-methoxy-4-((6-methoxypyridin-3-yl)methoxy)phenyl)ethyl)-5-(1-methyl-1H-pyrazol-4-yl)-1H-benzo[d]imidazol-2-amine] | 9.00 | 8.52 |  |
| COc1ccc(COc2ccc(C(C)n3c(N)nc4cc(-c5ccc(F)cc5)ccc43)cc2OC)cn1 (stereo not drawn) [Ex. 3-46, 5-(4-fluorophenyl)-1-(1-(3-methoxy-4-((6-methoxypyridin-3-yl)methoxy)phenyl)ethyl)-1H-benzo[d]imidazol-2-amine] | 7.43 | 7.07 |  |
| COc1cc(C(C)n2cnc3cc(-c4ccc(F)cc4)ccc32)ccc1OCc1ccc(C(F)(F)F)nc1 (stereo not drawn) [Ex. 3-47, 5-(4-fluorophenyl)-1-(1-(3-methoxy-4-((6-(trifluoromethyl)pyridin-3-yl)methoxy)phenyl)ethyl)-1H-benzo[d]imidazole] | 6.37 | 5.91 |  |
| COc1cc(C(C)n2cnc3cc(-c4cnn(C)c4)ccc32)ccc1OCc1ccc(C(F)(F)F)nc1 (stereo not drawn) [Ex. 3-48-1, 1-(1-(3-methoxy-4-((6-(trifluoromethyl)pyridin-3-yl)methoxy)phenyl)ethyl)-5-(1-methyl-1H-pyrazol-4-yl)-1H-benzo[d]imidazole] | 7.85 | 6.99 |  |
| COc1cc(C(C)n2cnc3cc(C#CCCO)ccc32)ccc1OCc1ccc(C(F)(F)F)nc1 (stereo not drawn) [Ex. 3-48-2, 4-(1-(1-(3-methoxy-4-((6-(trifluoromethyl)pyridin-3-yl)methoxy)phenyl)ethyl)-1H-benzo[d]imidazol-5-yl)but-3-yn-1-ol] | 6.90 | 6.16 |  |
| COc1cc(C(C)n2cnc3cc(-c4cnn(C)c4)cnc32)ccc1OCc1ccc(C(F)(F)F)nc1 (stereo not drawn) [Ex. 3-52, 3-(1-(3-methoxy-4-((6-(trifluoromethyl)pyridin-3-yl)methoxy)phenyl)ethyl)-6-(1-methyl-1H-pyrazol-4-yl)-3H-imidazo[4,5-b]pyridine] | 9.00 | 8.15 |  |
| COc1cc(C(C)n2c(N)nc3cc(-c4cnn(C)c4)cnc32)ccc1OCc1ccc(C(F)(F)F)nc1 (stereo not drawn) [Ex. 3-53, 3-(1-(3-methoxy-4-((6-(trifluoromethyl)pyridin-3-yl)methoxy)phenyl)ethyl)-6-(1-methyl-1H-pyrazol-4-yl)-3H-imidazo[4,5-b]pyridin-2-amine] | 9.22 | 9.40 |  |
| COc1cc(C(C)n2c(N)nc3cc(C#CCCO)cnc32)ccc1OCc1ccc(C(F)(F)F)nc1 (stereo not drawn) [Ex. 3-55, 4-(2-amino-3-(1-(3-methoxy-4-((6-(trifluoromethyl)pyridin-3-yl)methoxy)phenyl)ethyl)-3H-imidazo[4,5-b]pyridin-6-yl)but-3-yn-1-ol] | 9.00 | 9.00 |  |
| COc1cc(Cn2cnc3cc(C#CCCO)cnc32)ccc1OCc1ccc(C(F)F)nc1 [Ex. 3-56, 4-(3-(4-((6-(difluoromethyl)pyridin-3-yl)methoxy)-3-methoxybenzyl)-3H-imidazo[4,5-b]pyridin-6-yl)but-3-yn-1-ol] | 8.40 | 7.77 |  |
| COc1ccc(C(C)Oc2ccc(Cn3cnc4cc(-c5cnn(C)c5)cnc43)cc2OC)cn1 (stereo not drawn) [Ex. 3-57, 3-(3-methoxy-4-(1-(6-methoxypyridin-3-yl)ethoxy)benzyl)-6-(1-methyl-1H-pyrazol-4-yl)-3H-imidazo[4,5-b]pyridine formate] | 7.89 | 7.46 |  |
| COc1ccc(C(C)Oc2ccc(Cn3cnc4cc(-c5ccnn5C)cnc43)cc2OC)cn1 (stereo not drawn) [Ex. 3-58-1, 3-(3-methoxy-4-(1-(6-methoxypyridin-3-yl)ethoxy)benzyl)-6-(1-methyl-1H-pyrazol-5-yl)-3H-imidazo[4,5-b]pyridine formate] | 6.66 | 6.35 |  |
| COc1ccc(-c2cnc3c(c2)ncn3Cc2ccc(OC(C)c3ccc(OC)nc3)c(OC)c2)cn1 (stereo not drawn) [Ex. 3-58-2, 3-(3-methoxy-4-(1-(6-methoxypyridin-3-yl)ethoxy)benzyl)-6-(6-methoxypyridin-3-yl)-3H-imidazo[4,5-b]pyridine formate] | 7.21 | 6.80 |  |
| COc1ccc(C(C)Oc2ccc(Cn3cnc4cc(-c5ccnc(F)c5)cnc43)cc2OC)cn1 (stereo not drawn) [Ex. 3-58-3, 6-(2-fluoropyridin-4-yl)-3-(3-methoxy-4-(1-(6-methoxypyridin-3-yl)ethoxy)benzyl)-3H-imidazo[4,5-b]pyridine formate] | 7.17 | 6.67 |  |
| C[C@]12C=CC(=O)C=C1CC[C@H]1[C@@H]3C[C@@H](O)[C@](O)(C(=O)CO)[C@@]3(C)C[C@H](O)[C@@]12F [Triamcinolone, reference compound] |  |  | Knee caliper measurements [1]: significantly reduced on days 2, 4, 16, and 18, as well as prior to the first reactivation on day 0; Reduction of knee caliper AUC [1]: 53-106%; Gait scores and deficiency, first reactivation ([1]; male Lewis rats, days 1-4): significantly reduced; Gait scores and deficiency, second reactivation: significant reduction ([1]; male Lewis rats, days 14-18): on day 15, 17, and 18; Histopathology: reduction in summed scores ([1]; right knee, day 18): 74% |
